Source: patent US20080009418A1, “Selective Inhibitors” (Alchemia LTD., priority 2004, published 2008)

What was measured:
[1] = biological target: T1, Human Melanocortin (MC4) (Homo sapiens, UniProt P32245); experiment: Radioligand binding, human melanocortin MC4 membranes, FlashPlate, [125I]-NDP-αMSH; settings: compound at 10 μM; [125I]-NDP-αMSH, FlashPlate
T1 construct: purchased Perkin Elmer Biosignal
Outline: (§1)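 Cloned human receptor membranes were coated onto FlashPlate wells and incubated with radioligand and compound (added from a 0.5 mM DMSO daughter plate) for 1 hour at room temperature in the dark. Scintillation counting gave percent inhibition, with DMSO defining total and reference ligand defining non-specific binding.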

[2] = biological target: T2, Human Melanocortin (MC3) (Homo sapiens, UniProt P41968); experiment: Radioligand binding, human melanocortin MC3 membranes, FlashPlate, [125I]-NDP-αMSH; settings: compound at 10 μM; [125I]-NDP-αMSH, FlashPlate
T2 construct: purchased Perkin Elmer Biosignal
Outline: as §1

[3] = biological target: T3, Human melanocortin (MC5) (Homo sapiens, UniProt P33032); experiment: Radioligand binding, human melanocortin MC5 membranes, FlashPlate, [125I]-NDP-αMSH; settings: compound at 10 μM; [125I]-NDP-αMSH, FlashPlate
T3 construct: purchased Perkin Elmer Biosignal
Outline: as §1

[4] = biological target: T4, Human neuropeptide Y (NPY-Y1) (Homo sapiens, UniProt P25929); experiment: Radioligand binding, human neuropeptide Y NPY-Y1 membranes, FlashPlate, [125I]-PYY; settings: compound at 10 μM; [125I]-PYY, FlashPlate
T4 construct: purchased Perkin Elmer Biosignal
T4 sequence (P25929 1-384): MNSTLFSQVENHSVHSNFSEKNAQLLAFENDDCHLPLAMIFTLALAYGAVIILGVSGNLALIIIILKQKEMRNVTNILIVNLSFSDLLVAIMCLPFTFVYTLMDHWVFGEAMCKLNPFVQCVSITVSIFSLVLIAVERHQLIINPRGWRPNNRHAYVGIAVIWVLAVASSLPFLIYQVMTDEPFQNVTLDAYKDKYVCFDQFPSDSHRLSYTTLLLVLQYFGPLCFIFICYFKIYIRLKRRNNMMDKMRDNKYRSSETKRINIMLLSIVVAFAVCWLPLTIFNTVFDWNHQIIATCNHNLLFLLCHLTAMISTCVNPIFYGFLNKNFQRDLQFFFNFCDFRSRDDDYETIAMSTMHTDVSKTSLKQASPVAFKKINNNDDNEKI
Outline: as §1

[5] = biological target: T5, Human κ-Opioid (KOP) (Homo sapiens, UniProt P41145); experiment: Radioligand binding, human κ-opioid (KOP) membranes, filtration, [3H]-Diprenorphine; settings: compound at 10 μM; [3H]-Diprenorphine, filtration
T5 construct: purchased Perkin Elmer Biosignal
Outline: (§2)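 Filtration binding on cloned human receptor membranes (1 Unit/well), [125I]-Substance P for NK1 and [3H]-Diprenorphine for KOP, 1 h at room temperature. Filters PEI-presoaked, washed with cold 50 mM Tris-HCl pH 7.4, counted by scintillation; percent inhibition calculated, reference ligand defining non-specific binding.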

[6] = biological target: T6, Human δ-opioid (DOP) (Homo sapiens, UniProt P41143); experiment: Radioligand binding, human δ-opioid (DOP) membranes, FlashPlate, [3H]-Bremazocine; settings: compound at 10 μM; [3H]-Bremazocine, FlashPlate
T6 construct: purchased Perkin Elmer Biosignal
Outline: as §1

[7] = biological target: T7, Human neurokinin (NK1) (Homo sapiens, UniProt P25103); experiment: Radioligand binding, human neurokinin NK1 membranes, filtration, [125I]-Substance P; settings: compound at 10 μM; [125I]-Substance P, filtration
T7 construct: purchased Perkin Elmer Biosignal
Outline: as §2

[8] = biological target: T8, Human opioid (ORL1) (Homo sapiens, UniProt P41146); experiment: Radioligand binding, human opioid ORL1 membranes, FlashPlate, [125I]-Nociceptin; settings: compound at 10 μM; [125I]-Nociceptin, FlashPlate
T8 construct: purchased Perkin Elmer Biosignal
Outline: as §1

[9] = biological target: T9, Human μ-opioid (MOP) (Homo sapiens, UniProt P35372); experiment: Radioligand binding, human μ-opioid (MOP) membranes, FlashPlate, [3H]-Naloxone; settings: compound at 10 μM; [3H]-Naloxone, FlashPlate
T9 construct: purchased Perkin Elmer Biosignal
Outline: as §1

[10] = biological target: T10, Human melanin-concentrating hormone (MCH1) (Homo sapiens, UniProt Q99705); experiment: Radioligand binding, human melanin-concentrating hormone MCH1 membranes, FlashPlate, [125I]-S36057; settings: compound at 10 μM; [125I]-S36057, FlashPlate
T10 construct: purchased Perkin Elmer Biosignal
Outline: as §1

[11] = biological target: T11, Mouse urotensin (mUR2) (Mus musculus, UniProt Q8VIH9); experiment: Radioligand binding, mouse urotensin mUR2 membranes, FlashPlate, [125I]-Urotensin II; settings: compound at 10 μM; [125I]-Urotensin II, FlashPlate
T11 construct: purchased Perkin Elmer Biosignal
T11 sequence (Q8VIH9 1-385): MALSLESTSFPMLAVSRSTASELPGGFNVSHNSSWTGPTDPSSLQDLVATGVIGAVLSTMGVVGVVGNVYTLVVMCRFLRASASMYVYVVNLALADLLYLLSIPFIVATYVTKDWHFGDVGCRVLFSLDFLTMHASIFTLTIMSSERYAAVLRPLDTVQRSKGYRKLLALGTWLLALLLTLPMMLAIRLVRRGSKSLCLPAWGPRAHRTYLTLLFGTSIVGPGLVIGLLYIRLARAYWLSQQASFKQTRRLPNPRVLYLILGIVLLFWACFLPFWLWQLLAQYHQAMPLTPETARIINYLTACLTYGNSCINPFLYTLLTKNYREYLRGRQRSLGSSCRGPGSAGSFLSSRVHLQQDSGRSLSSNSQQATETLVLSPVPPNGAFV
Outline: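 Cloned mouse urotensin (mUR2) receptor membranes from Perkin Elmer Biosignal were immobilized in FlashPlate microplates using a proprietary coating. Each well got 19.5 μl buffer, then 0.5 μl of DMSO, reference ligand, or compound. Adding 5 μl of [125I]-Urotensin II, diluted to 5× final concentration in binding buffer, started binding. Plates were sealed with TopSeal-A and incubated 1 hour at room temperature in the dark. Wells were counted for 30 seconds each on a TopCount after a 60-second delay, and percentage inhibition was calculated.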

T6 sequence (P41143 whole entry): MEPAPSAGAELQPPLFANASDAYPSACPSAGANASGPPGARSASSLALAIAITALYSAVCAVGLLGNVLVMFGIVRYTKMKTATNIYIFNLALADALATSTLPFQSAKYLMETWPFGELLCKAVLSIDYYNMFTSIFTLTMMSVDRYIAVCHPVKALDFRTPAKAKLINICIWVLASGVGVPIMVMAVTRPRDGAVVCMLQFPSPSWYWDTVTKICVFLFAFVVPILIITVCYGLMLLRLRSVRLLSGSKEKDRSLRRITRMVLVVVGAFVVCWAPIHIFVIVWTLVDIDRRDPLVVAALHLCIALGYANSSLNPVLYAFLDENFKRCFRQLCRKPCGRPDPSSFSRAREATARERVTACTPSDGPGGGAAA
T8 sequence (P41146 whole entry): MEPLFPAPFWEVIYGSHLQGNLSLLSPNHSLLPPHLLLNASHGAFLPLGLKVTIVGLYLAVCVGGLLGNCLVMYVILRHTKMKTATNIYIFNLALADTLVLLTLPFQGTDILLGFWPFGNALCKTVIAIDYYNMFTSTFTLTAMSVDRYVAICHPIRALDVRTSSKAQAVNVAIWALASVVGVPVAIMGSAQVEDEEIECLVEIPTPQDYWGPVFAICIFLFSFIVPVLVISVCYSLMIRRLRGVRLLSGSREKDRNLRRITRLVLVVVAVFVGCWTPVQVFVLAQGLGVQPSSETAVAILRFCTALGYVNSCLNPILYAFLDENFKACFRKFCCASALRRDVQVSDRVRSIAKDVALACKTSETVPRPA
T7 sequence (P25103 whole entry): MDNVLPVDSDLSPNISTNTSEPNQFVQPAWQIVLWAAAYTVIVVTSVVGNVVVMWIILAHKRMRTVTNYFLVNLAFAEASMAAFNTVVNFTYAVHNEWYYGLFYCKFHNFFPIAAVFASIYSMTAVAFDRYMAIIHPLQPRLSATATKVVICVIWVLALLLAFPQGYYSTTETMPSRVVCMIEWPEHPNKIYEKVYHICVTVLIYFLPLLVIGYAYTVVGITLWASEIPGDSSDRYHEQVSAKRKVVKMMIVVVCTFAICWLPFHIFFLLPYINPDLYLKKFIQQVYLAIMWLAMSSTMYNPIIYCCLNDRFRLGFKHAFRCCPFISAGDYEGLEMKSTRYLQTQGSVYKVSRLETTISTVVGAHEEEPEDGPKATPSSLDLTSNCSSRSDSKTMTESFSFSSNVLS
T10 sequence (Q99705 whole entry): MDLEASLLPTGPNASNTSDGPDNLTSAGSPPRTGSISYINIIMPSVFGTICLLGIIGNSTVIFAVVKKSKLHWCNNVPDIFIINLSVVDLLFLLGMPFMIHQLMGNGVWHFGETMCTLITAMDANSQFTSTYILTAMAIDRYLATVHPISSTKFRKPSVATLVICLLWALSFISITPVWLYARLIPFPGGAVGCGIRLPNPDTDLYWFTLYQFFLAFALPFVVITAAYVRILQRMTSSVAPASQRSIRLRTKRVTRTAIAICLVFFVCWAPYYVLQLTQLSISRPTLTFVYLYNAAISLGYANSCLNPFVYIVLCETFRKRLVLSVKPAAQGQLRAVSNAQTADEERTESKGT
T2 sequence (P41968 whole entry): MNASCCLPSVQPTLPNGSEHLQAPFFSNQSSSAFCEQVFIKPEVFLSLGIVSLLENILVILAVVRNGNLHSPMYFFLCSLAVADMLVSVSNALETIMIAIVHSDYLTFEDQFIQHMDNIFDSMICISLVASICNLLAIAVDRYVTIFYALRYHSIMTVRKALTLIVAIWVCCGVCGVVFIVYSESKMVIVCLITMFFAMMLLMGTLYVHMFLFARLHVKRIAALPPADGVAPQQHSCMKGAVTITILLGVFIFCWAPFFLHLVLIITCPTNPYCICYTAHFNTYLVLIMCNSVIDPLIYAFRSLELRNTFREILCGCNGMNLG
T9 sequence (P35372 whole entry): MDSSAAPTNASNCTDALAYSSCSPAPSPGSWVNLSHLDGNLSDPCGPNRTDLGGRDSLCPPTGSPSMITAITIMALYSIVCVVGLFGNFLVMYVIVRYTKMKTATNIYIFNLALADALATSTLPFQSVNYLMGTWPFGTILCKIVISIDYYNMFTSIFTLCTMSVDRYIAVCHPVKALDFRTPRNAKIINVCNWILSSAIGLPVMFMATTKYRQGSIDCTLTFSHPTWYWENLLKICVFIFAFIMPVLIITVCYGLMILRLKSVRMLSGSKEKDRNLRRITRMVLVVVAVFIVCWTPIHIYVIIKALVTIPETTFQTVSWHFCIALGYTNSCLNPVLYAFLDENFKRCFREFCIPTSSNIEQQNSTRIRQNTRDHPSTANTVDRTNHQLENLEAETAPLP
T5 sequence (P41145 whole entry): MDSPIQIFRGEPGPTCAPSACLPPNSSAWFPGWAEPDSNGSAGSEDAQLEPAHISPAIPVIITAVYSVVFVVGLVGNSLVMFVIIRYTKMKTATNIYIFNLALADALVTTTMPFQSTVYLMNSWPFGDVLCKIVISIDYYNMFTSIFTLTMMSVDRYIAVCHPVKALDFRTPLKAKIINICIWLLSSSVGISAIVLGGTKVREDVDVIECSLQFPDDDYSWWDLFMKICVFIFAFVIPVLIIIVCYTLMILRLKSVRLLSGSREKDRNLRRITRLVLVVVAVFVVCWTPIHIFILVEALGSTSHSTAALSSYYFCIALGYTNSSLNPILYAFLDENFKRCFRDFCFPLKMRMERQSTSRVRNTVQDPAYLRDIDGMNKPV
T3 sequence (P33032 whole entry): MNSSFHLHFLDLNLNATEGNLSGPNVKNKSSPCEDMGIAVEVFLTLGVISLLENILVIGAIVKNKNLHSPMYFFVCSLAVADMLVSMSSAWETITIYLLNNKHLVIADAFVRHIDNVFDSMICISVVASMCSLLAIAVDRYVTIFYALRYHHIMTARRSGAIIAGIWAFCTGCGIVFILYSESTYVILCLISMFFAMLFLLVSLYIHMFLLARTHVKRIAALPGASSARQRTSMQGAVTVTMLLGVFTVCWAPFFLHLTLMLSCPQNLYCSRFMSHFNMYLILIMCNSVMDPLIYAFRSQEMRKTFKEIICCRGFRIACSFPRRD
T1 sequence (P32245 whole entry): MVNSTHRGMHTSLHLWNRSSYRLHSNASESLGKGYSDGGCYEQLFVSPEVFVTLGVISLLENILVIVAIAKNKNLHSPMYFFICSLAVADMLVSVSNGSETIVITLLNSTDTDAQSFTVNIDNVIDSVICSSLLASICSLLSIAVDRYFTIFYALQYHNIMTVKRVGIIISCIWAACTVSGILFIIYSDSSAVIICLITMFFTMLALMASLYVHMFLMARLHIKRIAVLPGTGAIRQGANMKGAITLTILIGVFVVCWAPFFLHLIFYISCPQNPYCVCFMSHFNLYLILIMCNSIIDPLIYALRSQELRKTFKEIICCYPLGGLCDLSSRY

CSC1OC(COCc2ccc(-c3ccccc3)cc2)C(O)C(OCc2ccccc2)C1NC(=O)CNC(=N)N (stereo not drawn) [compound 255]
A4: inhibition of radioligand binding [1]: + (“+” indicates greater than 50% inhibition at 10 μM) | A3: inhibition of radioligand binding [2]: − (“−” indicates less than 50% inhibition at 10 μM) | A5: inhibition of radioligand binding [3]: + (“+” indicates greater than 50% inhibition at 10 μM) | A9: inhibition of radioligand binding [4]: − (“−” indicates less than 50% inhibition at 10 μM) | A2: inhibition of radioligand binding [5]: − (“−” indicates less than 50% inhibition at 10 μM) | A1: inhibition of radioligand binding [6]: − (“−” indicates less than 50% inhibition at 10 μM) | A8: inhibition of radioligand binding [7]: + (“+” indicates greater than 50% inhibition at 10 μM) | A10: inhibition of radioligand binding [8]: − (“−” indicates less than 50% inhibition at 10 μM) | A7: inhibition of radioligand binding [9]: − (“−” indicates less than 50% inhibition at 10 μM) | A6: inhibition of radioligand binding [10]: − (“−” indicates less than 50% inhibition at 10 μM) | A11: inhibition of radioligand binding [11]: − (“−” indicates less than 50% inhibition at 10 μM)

CSC1OC(COCc2ccc(-c3ccccc3)cc2)C(O)C(OCc2ccccc2)C1NC(=O)CCN (stereo not drawn) [compound 256]
A4: inhibition of radioligand binding [1]: − (“−” indicates less than 50% inhibition at 10 μM) | A3: inhibition of radioligand binding [2]: − (“−” indicates less than 50% inhibition at 10 μM) | A5: inhibition of radioligand binding [3]: − (“−” indicates less than 50% inhibition at 10 μM) | A9: inhibition of radioligand binding [4]: − (“−” indicates less than 50% inhibition at 10 μM) | A2: inhibition of radioligand binding [5]: − (“−” indicates less than 50% inhibition at 10 μM) | A1: inhibition of radioligand binding [6]: − (“−” indicates less than 50% inhibition at 10 μM) | A8: inhibition of radioligand binding [7]: + (“+” indicates greater than 50% inhibition at 10 μM) | A10: inhibition of radioligand binding [8]: − (“−” indicates less than 50% inhibition at 10 μM) | A7: inhibition of radioligand binding [9]: − (“−” indicates less than 50% inhibition at 10 μM) | A6: inhibition of radioligand binding [10]: − (“−” indicates less than 50% inhibition at 10 μM) | A11: inhibition of radioligand binding [11]: − (“−” indicates less than 50% inhibition at 10 μM)

CSC1OC(COCc2ccc(-c3ccccc3)cc2)C(O)C(OCc2ccccc2)C1NC(=O)CCNC(=N)N (stereo not drawn) [compound 257]
A4: inhibition of radioligand binding [1]: + (“+” indicates greater than 50% inhibition at 10 μM) | A3: inhibition of radioligand binding [2]: − (“−” indicates less than 50% inhibition at 10 μM) | A5: inhibition of radioligand binding [3]: − (“−” indicates less than 50% inhibition at 10 μM) | A9: inhibition of radioligand binding [4]: − (“−” indicates less than 50% inhibition at 10 μM) | A2: inhibition of radioligand binding [5]: − (“−” indicates less than 50% inhibition at 10 μM) | A1: inhibition of radioligand binding [6]: − (“−” indicates less than 50% inhibition at 10 μM) | A8: inhibition of radioligand binding [7]: + (“+” indicates greater than 50% inhibition at 10 μM) | A10: inhibition of radioligand binding [8]: − (“−” indicates less than 50% inhibition at 10 μM) | A7: inhibition of radioligand binding [9]: − (“−” indicates less than 50% inhibition at 10 μM) | A6: inhibition of radioligand binding [10]: − (“−” indicates less than 50% inhibition at 10 μM) | A11: inhibition of radioligand binding [11]: − (“−” indicates less than 50% inhibition at 10 μM)

CSC1OC(COCc2ccc(-c3ccccc3)cc2)C(O)C(OCc2ccccc2)C1NC(=O)CCCN (stereo not drawn) [compound 258]
A4: inhibition of radioligand binding [1]: − (“−” indicates less than 50% inhibition at 10 μM) | A3: inhibition of radioligand binding [2]: − (“−” indicates less than 50% inhibition at 10 μM) | A5: inhibition of radioligand binding [3]: − (“−” indicates less than 50% inhibition at 10 μM) | A9: inhibition of radioligand binding [4]: − (“−” indicates less than 50% inhibition at 10 μM) | A2: inhibition of radioligand binding [5]: − (“−” indicates less than 50% inhibition at 10 μM) | A1: inhibition of radioligand binding [6]: − (“−” indicates less than 50% inhibition at 10 μM) | A8: inhibition of radioligand binding [7]: + (“+” indicates greater than 50% inhibition at 10 μM) | A10: inhibition of radioligand binding [8]: − (“−” indicates less than 50% inhibition at 10 μM) | A7: inhibition of radioligand binding [9]: − (“−” indicates less than 50% inhibition at 10 μM) | A6: inhibition of radioligand binding [10]: − (“−” indicates less than 50% inhibition at 10 μM) | A11: inhibition of radioligand binding [11]: − (“−” indicates less than 50% inhibition at 10 μM)

CSC1OC(COCc2ccc(-c3ccccc3)cc2)C(O)C(OCc2ccccc2)C1NC(=O)CCCNC(=N)N (stereo not drawn) [compound 259]
A4: inhibition of radioligand binding [1]: + (“+” indicates greater than 50% inhibition at 10 μM) | A3: inhibition of radioligand binding [2]: − (“−” indicates less than 50% inhibition at 10 μM) | A5: inhibition of radioligand binding [3]: − (“−” indicates less than 50% inhibition at 10 μM) | A9: inhibition of radioligand binding [4]: − (“−” indicates less than 50% inhibition at 10 μM) | A2: inhibition of radioligand binding [5]: − (“−” indicates less than 50% inhibition at 10 μM) | A1: inhibition of radioligand binding [6]: − (“−” indicates less than 50% inhibition at 10 μM) | A8: inhibition of radioligand binding [7]: + (“+” indicates greater than 50% inhibition at 10 μM) | A10: inhibition of radioligand binding [8]: − (“−” indicates less than 50% inhibition at 10 μM) | A7: inhibition of radioligand binding [9]: − (“−” indicates less than 50% inhibition at 10 μM) | A6: inhibition of radioligand binding [10]: − (“−” indicates less than 50% inhibition at 10 μM) | A11: inhibition of radioligand binding [11]: − (“−” indicates less than 50% inhibition at 10 μM)

CSC1OC(COCc2ccc3ccccc3c2)C(O)C(OCc2ccccc2)C1NC(=O)CNC(=N)N (stereo not drawn) [compound 260]
A4: inhibition of radioligand binding [1]: + (“+” indicates greater than 50% inhibition at 10 μM) | A3: inhibition of radioligand binding [2]: − (“−” indicates less than 50% inhibition at 10 μM) | A5: inhibition of radioligand binding [3]: − (“−” indicates less than 50% inhibition at 10 μM) | A9: inhibition of radioligand binding [4]: − (“−” indicates less than 50% inhibition at 10 μM) | A2: inhibition of radioligand binding [5]: − (“−” indicates less than 50% inhibition at 10 μM) | A1: inhibition of radioligand binding [6]: − (“−” indicates less than 50% inhibition at 10 μM) | A8: inhibition of radioligand binding [7]: − (“−” indicates less than 50% inhibition at 10 μM) | A10: inhibition of radioligand binding [8]: − (“−” indicates less than 50% inhibition at 10 μM) | A7: inhibition of radioligand binding [9]: − (“−” indicates less than 50% inhibition at 10 μM) | A6: inhibition of radioligand binding [10]: − (“−” indicates less than 50% inhibition at 10 μM) | A11: inhibition of radioligand binding [11]: − (“−” indicates less than 50% inhibition at 10 μM)
